Experimental data as given in patent US10759799B2, “Indazole containing macrocycles and therapeutic uses thereof” (Samumed, LLC, priority 2018, dated 2020).

Tests used:
[1] = target: recombinant DYRK1A kinase (Homo sapiens (Human), UniProt Q13627); test: DYRK1A kinase assay (Ser/Thr 18 peptide Z-lyte, FRET); assay type: biochemical; settings: 30 μM ATP, one hour at room temperature, read-out: EC50 (μM) (IC50 per method)
From the text: Representative compounds were screened using the assay procedure for DYRK1A kinase activity as described below.
The DYRK1A kinase assay was run using the Ser/Thr 18 peptide Z-lyte assay kit according to manufacturer's instructions (Life Technologies—a Division of Thermo-Fisher). This is a non-radioactive assay using fluorescence resonance energy transfer (FRET) between coumarin and fluorescein to detect kinase activity which is represented as a ratio of coumarin emission/fluorescein emission.
Briefly, recombinant DYRK1A kinase, ATP and Ser/Thr peptide 18 were prepared in 1× Kinase buffer to final concentrations of 0.19 μg/mL, 30 μM, and 4 μM respectively. The mixture was allowed to incubate with the representative compounds for one hour at room temperature. All reactions were performed in duplicate. Unphosphorylated (“0% Control”) and phosphorylated (“100% control”) forms of Ser/Thr 18 served as control reactions. Additionally, an 11-point dose-response curve of Staurosporine (1 uM top) was run to serve as a positive compound control.
After incubation, Development Reagent A was diluted in Development Buffer then added to the reaction and allowed to further incubate for one hour at room temperature. The plate was read at Ex 400 Em 455 to detect the coumarin signal and Ex 400 Em 520 to measure the signal (EnVision Multilabel Plate Reader, PerkinElmer).
The Emission ratio (Em) was calculated as a ratio of the coumarin (C) emission signal (at 445 nm)/Fluorescein (F) emission signal (at 520 nm). The percent phosphorylation was then calculated using the following formula: [1−((Em ratio×F100%)−C100%)/((C0%−C100%)+(Em ratio×(F100%−F0%)))].

[2] = tested on: primary human mesenchymal stem cells (hMSCs); test: Chondrogenesis induction in hMSCs (Rhodamine B staining intensity, EC50); assay type: cell-based; settings: 6 days, Rhodamine B staining intensity of nodules
From the text: Representative compounds were screened using primary human mesenchymal stem cells (hMSCs) to determine their ability to induce chondrogenesis (process by which cartilage is developed).
Primary human mesenchymal stem cells (hMSCs) were purchased from Lonza (Walkersville, Md.) and expanded in Mesenchymal Stem Cell Growth Media (Lonza). Cells between passage 2 and 4 were used for the experiments.
To image chondrogenic nodules, the cells were fixed using 4% formaldehyde (Electron Microscopy Sciences), and stained with 2 μg/mL Rhodamine B (Sigma-Aldrich) and 20 μM Nile Red (Sigma-Aldrich) [Johnson K., et. al, A Stem Cell-Based Approach to Cartilage Repair, Science, (2012), 336(6082). […] Rhodamine B staining intensity of nodules in each well was normalized to the average of 3 DMSO treated wells on the same plate using Excel (Microsoft Inc.). The normalized averages (fold change over DMSO) of 3 replicate wells for each compound concentration were calculated. EC50 values were calculated using non-linear regression curve fitting in Prism 8 (Graphpad Inc.). Due to solubility limitations of some of the compounds, curve fitting was incomplete, and the highest observed activity was extrapolated to the insoluble doses for accurate EC50 determinations.
EC50 values are reported. Further, using TGF-β3 as a positive control, the concentration of representative compounds required to induce equivalent levels of chondrogenesis is reported. In addition, the maximum activity of each compound and the respective dose that each compound reached maximum chondrogenesis activity is reported.

[3] = tested on: Wnt activity (Sp5-Luc reporter, SW480 colon carcinoma cells); test: Sp5-Luc reporter gene screening assay for Wnt activity in SW480 cells; assay type: cell-based; settings: Homo sapiens; Sp5-Luc reporter, SW480 cells, 36 to 48 hours
From the text: The screening assay for Wnt activity is described as follows. Reporter cell lines can be generated by stably transducing cancer cell lines (e.g., colon cancer) or primary cells (e.g., IEC-6 intestinal cells) with a lentiviral construct that includes a Wnt-responsive promoter driving expression of the firefly luciferase gene.
SW480 colon carcinoma cells were transduced with a lentiviral vector expressing luciferase with a human Sp5 promoter consisting of a sequence of eight TCF/LEF binding sites. SW480 cells stably expressing the Sp5-Luc reporter gene and a hygromycin resistance gene were selected by treatment with 150 μg/mL of hygromycin for 7 days. These stably transduced SW480 cells were expanded in cell culture and used for all further screening activities. […] For Sp5-Luc reporter gene assays, the cells were plated at 4,000 cells/well in 384-well plates with a DMEM medium containing 1% fetal bovine serum, and 1% Penicillin-Streptomycin and incubated for 36 to 48 hours at 37° C. and 5% CO2. Following incubation, 15 μl of BriteLite Plus luminescence reagent (Perkin Elmer) was added to each well of the 384-well assay plates. The plates were placed on an orbital shaker for 2 min and then luminescence was quantified using the Envision (Perkin Elmer) plate reader. Readings were normalized to DMSO only treated cells, and normalized activities were utilized for EC50 calculations using the dose-response log (inhibitor) vs. response-variable slope (four parameters) nonlinear regression feature available in GraphPad Prism 5.0 (or Dotmatics).

[4] = tested on: SW480 colon carcinoma cells; test: Cell viability assay (CellTiter-Glo) in SW480 cells; assay type: cell-based; settings: Homo sapiens, 96 h; SW480 cell viability, four days, CellTiter-Glo
Method: Representative compounds were screened using the assay procedure to assess the effect on cell viability as described below.
SW480 colon carcinoma cells were transduced with a lentiviral vector expressing luciferase with a human Sp5 promoter consisting of a sequence of eight TCF/LEF binding sites. SW480 cells stably expressing the Sp5-Luc reporter gene and a hygromycin resistance gene were selected by treatment with 150 μg/mL of hygromycin for 7 days. These stably transduced SW480 cells were expanded in cell culture and used for all further screening activities.
For the Cell Viability Assays, the cells were plated at 2,000 cells/well in 384-well plates with a DMEM medium containing 1% fetal bovine serum, and 1% Penicillin-Streptomycin and incubated for […] at 37° C. and 5% CO2. Eight replicates of DMSO-treated cells served as controls and cells treated with compound were performed in duplicate.
After incubation, 10 μL of CellTiter-Glo (Promega) was added to each well allowed to incubate for approximately 12 minutes. This reagent “results in cell lysis and generation of a luminescent signal proportional to the amount of ATP present. The amount of ATP is directly proportional to the number of cells present in culture, in agreement with previous reports. The CellTiter-Glo Assay generates a “glow-type” luminescent signal, produced by the luciferase reaction (Promega.com)”.

In the case of `c1cc2cc(c1)-c1cccc3[nH]c(nc13)-c1n[nH]c3ccc(cc13)-c1cncc(c1)CNC2` [Compound 10, (Z)-2^1H,3^1H-6-Aza-2(5,3),3(2,4)-diindazola-1(3,5)-pyridina-4(1,3)-benzenacycloheptaphane], the IC50 [1] is reported as 0.018 µM, the EC50 [2] is reported as 0.01 µM and the EC50 [3] is reported as 0.011 µM. For the same molecule, the EC50 [4] was 0.026 µM.
